First: CCOc1nn(-c2ccccn2)cc1CCCOc1ccc(CCC(=O)O)cc1OC [Example 109, 3-(4-{3-[3-ethoxy-1-(2-pyridinyl)-1H-pyrazol-4-yl]propoxy}-3-methoxyphenyl)propanoic acid]
Second: CCOc1nn(-c2cc(C(F)(F)F)ccn2)cc1CCCOc1ccc(CCC(=O)O)cc1OC [Example 287, 3-[4-(3-{3-ethoxy-1-[4-(trifluoromethyl)-2-pyridinyl]-1H-pyrazol-4-yl}propoxy)-3-methoxyphenyl]propanoic acid]
The melting point of the first is lower: 92 to 93 °C for the first, 111 to 112 °C for the second.

First: CCOc1nn(-c2ccc(C(F)(F)F)cn2)cc1CCCOc1cccc(C(C)(C)C(=O)O)c1 [Example 160, 2-[3-(3-{3-ethoxy-1-[5-(trifluoromethyl)-2-pyridyl]-1H-pyrazol-4-yl}propoxy)phenyl]-2-methylpropanoic acid]
Second: CCOc1nn(-c2ccc(C(F)(F)F)cn2)cc1CCCOc1ccc(Cl)cc1CC(=O)O [Example 139, [5-chloro-2-(3-{3-ethoxy-1-[5-(trifluoromethyl)-2-pyridyl]-1H-pyrazol-4-yl}propoxy)phenyl]acetic acid]
The melting point of the first is higher: 131 to 132 °C for the first, 130 to 131 °C for the second.

Compared with `COc1cccc(CC(=O)O)c1OCCCc1cn(-c2ccc(C(F)(F)F)cn2)nc1C(C)(C)C` [Example 345, [2-(3-{3-tert-butyl-1-[5-(trifluoromethyl)-2-pyridinyl]-1H-pyrazol-4-yl}propoxy)-3-methoxyphenyl]acetic acid], `CC(C)c1nn(-c2ccc(C(F)(F)F)cn2)cc1CCCOc1c(C#N)cccc1CC(=O)O` [Example 231, [3-cyano-2-(3-{3-isopropyl-1-[5-(trifluoromethyl)-2-pyridinyl]-1H-pyrazol-4-yl}propoxy)phenyl]acetic acid] is higher in melting point: 94 to 95 °C for the first, 144 to 145 °C for the second.

Compared with `CC(C)c1nn(-c2ccccn2)cc1CCCOc1ccccc1CC(=O)O` [Example 309, (2-{3-[3-isopropyl-1-(2-pyridinyl)-1H-pyrazol-4-yl]propoxy}phenyl)acetic acid], `COc1cccc(CC(=O)O)c1OCCCc1cn(-c2ccc(NC(C)=O)cn2)nc1C(C)C` [Example 265, (2-{3-[1-(5-acetylamino-2-pyridyl)-3-isopropyl-1H-pyrazol-4-yl]propoxy}-3-methoxyphenyl)acetic acid] is higher in melting point: 140 to 142 °C for the first, 158 to 159 °C for the second.

First: CCOc1nn(-c2ccc(C(F)(F)F)cn2)cc1CCCOc1nn(C)cc1CC(=O)O [Example 135, [3-(3-{3-ethoxy-1-[5-(trifluoromethyl)-2-pyridyl]-1H-pyrazol-4-yl}propoxy)-1-methyl-1H-pyrazol-4-yl]acetic acid]
Second: CCOc1nn(-c2ccc(C(F)(F)F)cn2)cc1CCCOc1cc(CC(=O)O)n(C)n1 [Example 119, [3-(3-{3-ethoxy-1-[5-(trifluoromethyl)-2-pyridinyl]-1H-pyrazol-4-yl}propoxy)-1-methyl-1H-pyrazol-5-yl]acetic acid]
The melting point of the first is lower: 115 to 116 °C for the first, 151 to 152 °C for the second.

First: CCCc1nn(-c2ccc(C(F)(F)F)cn2)cc1CCCOc1nn(-c2ccccc2)cc1CC(=O)O [Example 67, [1-phenyl-3-(3-{3-propyl-1-[5-(trifluoromethyl)-2-pyridinyl]-1H-pyrazol-4-yl}propoxy)-1H-pyrazol-4-yl]acetic acid]
Second: CC(C)c1nn(-c2ccc(C(F)(F)F)cn2)cc1CCCCOc1nn(-c2ccccc2)cc1CC(=O)O [Example 68, [3-(4-{3-isopropyl-1-[5-(trifluoromethyl)-2-pyridinyl]-1H-pyrazol-4-yl}butoxy)-1-phenyl-1H-pyrazol-4-yl]acetic acid]
The melting point of the first is higher: 123 to 124 °C for the first, 119 to 120 °C for the second.

First: Cc1cnn(CC(=O)O)c1OCCCc1cn(-c2ccc(C(F)(F)F)cn2)nc1C(C)C [Example 327, [5-(3-{3-isopropyl-1-[5-(trifluoromethyl)-2-pyridinyl]-1H-pyrazol-4-yl}propoxy)-4-methyl-1H-pyrazol-1-yl]acetic acid]
Second: COc1cc(CC(=O)O)cc(OCCCc2cn(-c3ccc(C(F)(F)F)cn3)nc2C(C)C)c1 [Example 203, [3-(3-{3-isopropyl-1-[5-(trifluoromethyl)-2-pyridyl]-1H-pyrazol-4-yl}propoxy)-5-methoxyphenyl]acetic acid]
The melting point of the first is higher: 123 to 124 °C for the first, 109 to 110 °C for the second.

First: CC(C)c1nn(-c2ccc(C(F)(F)F)cn2)cc1CCCOc1cc(CCC(=O)O)n(C2CCCCC2)n1 [Example 262, 3-[1-cyclohexyl-3-(3-{3-isopropyl-1-[5-(trifluoromethyl)-2-pyridyl]-1H-pyrazol-4-yl}propoxy)-1H-pyrazol-5-yl]propanoic acid]
Second: COc1ccc(CCC(=O)O)cc1OCCCc1cn(-c2ccc(C(F)(F)F)cn2)nc1C(C)C [Example 324, 3-[3-(3-{3-isopropyl-1-[5-(trifluoromethyl)-2-pyridinyl]-1H-pyrazol-4-yl}propoxy)-4-methoxyphenyl]propanoic acid]
The melting point of the first is higher: 166 to 167 °C for the first, 93 to 94 °C for the second.

First: CCCc1nn(-c2ccc(C(F)(F)F)cn2)cc1CCCOc1c(F)cccc1CC(=O)O [Example 211, [3-fluoro-2-(3-{3-propyl-1-[5-(trifluoromethyl)-2-pyridyl]-1H-pyrazol-4-yl}propoxy)phenyl]acetic acid]
Second: CCOc1nn(-c2ccc(C(F)(F)F)cn2)cc1CCCOc1ccc(CCC(=O)O)cc1OC(C)C [Example 164, 3-[4-(3-{3-ethoxy-1-[5-(trifluoromethyl)-2-pyridyl]-1H-pyrazol-4-yl}propoxy)-3-isopropoxyphenyl]propanoic acid]
The melting point of the first is higher: 105 to 106 °C for the first, 93 to 94 °C for the second.

First: Cc1nn(-c2ccc(C(F)(F)F)cn2)cc1COc1ccc(CCC(=O)O)cc1 [Example 9, 3-(4-{3-methyl-1-[5-(trifluoromethyl)-2-pyridyl]-1H-pyrazol-4-ylmethoxy}phenyl)propionic acid]
Second: Cc1nn(-c2ccc(C(F)(F)F)cn2)cc1COc1cc(CCC(=O)O)n(C)n1 [Example 38, 3-(1-methyl-3-{3-methyl-1-[5-(trifluoromethyl)-2-pyridyl]-1H-pyrazol-4-ylmethoxy}-1H-pyrazol-5-yl)propionic acid]
The melting point of the first is higher: 195 to 196 °C for the first, 154 to 155 °C for the second.

First: CCOc1cc(OCCCc2cn(-c3cc(C(F)(F)F)ccn3)nc2OCC)ccc1CCC(=O)OC [Example 285, methyl 3-[2-ethoxy-4-(3-{3-ethoxy-1-[4-(trifluoromethyl)-2-pyridinyl]-1H-pyrazol-4-yl}propoxy)phenyl]propanoate]
Second: CCOc1cc(OCCCc2cn(-c3ccccn3)nc2OCC)ccc1CCC(=O)O [Example 108, 3-(2-ethoxy-4-{3-[3-ethoxy-1-(2-pyridinyl)-1H-pyrazol-4-yl]propoxy}phenyl)propanoic acid]
The melting point of the first is lower: 79 to 81 °C for the first, 110 to 111 °C for the second.

First: CCOc1nn(-c2ccccn2)cc1CCCOc1cccc(OC(C)(C)C(=O)O)c1 [Example 101, 2-(3-{3-[3-ethoxy-1-(2-pyridinyl)-1H-pyrazol-4-yl]propoxy}phenoxy)-2-methylpropanoic acid]
Second: COc1cccc(CC(=O)O)c1OCCCc1cn(-c2nnc(C(F)(F)F)s2)nc1C(C)C [Example 194, [3-methoxy-2-(3-{3-(1-methylethyl)-1-[5-(trifluoromethyl)-1,3,4-thiadiazole-2-yl]-1H-pyrazol-4-yl}propoxy)phenyl]acetic acid]
The melting point of the first is lower: 99 to 101 °C for the first, 144 to 145 °C for the second.

From US20060148858A1, “1, 2-Azole derivatives with hypoglycemic and hypolipidemic activity” (priority 2002, published 2006)
